Where two headings read alike, the source gives them in different places.
What was measured:
[1] = target: T1, MAPK2(m) (Mus musculus, UniProt P63085); test: biochemical; design: Eurofins kinase panel, residual kinase activity (%) at 10 uM relative to DMSO
T1 construct: gene Mapk1
Method: (§1) Eurofins performed a “Full KP Panel [Km ATP], KinaseProfile” which contains 429 radiometric kinase activity assays. The remaining kinase activity (%) was determined after treatment with the compounds at a concentration of 10 µM (Cfr. supporting information). Since we could not confirm the interaction between Spautin-1 analogues and USP13, a kinase screening was performed using a set of four compounds (Spautin-1 and three analogues) to discover off-targets and identify kinases that are potentially responsible for the reduction in cell viability observed in our screen (Table 2). The KINOMEscan from Eurofins was performed (see Table S1). This screen consists of a competitive binding assay in which the DNA-tagged kinase is incubated with one of the compounds in the presence of immobilized active site binding ligands. Binding of the compounds to the kinase hampers the binding of the kinase to the ligands and this inhibition was quantified by qPCR.

[2] = target: T2, MAPK2(h) (Homo sapiens, UniProt P28482); test: biochemical; design: Eurofins kinase panel, residual kinase activity (%) at 10 uM relative to DMSO
T2 construct: gene MAPK1
Method: as §1

[3] = target: T3, ACTR2(h) (Homo sapiens, UniProt P27037); test: biochemical; design: Eurofins kinase panel, residual kinase activity (%) at 10 uM relative to DMSO
T3 construct: gene ACVR2A
Method: as §1

[4] = target: T4, MAPK1(h) (Homo sapiens, UniProt P27361); test: biochemical; design: Eurofins kinase panel, residual kinase activity (%) at 10 uM relative to DMSO
T4 construct: gene MAPK3
Method: as §1

[5] = target: T5, MLCK(h) (Homo sapiens, UniProt Q15746); test: biochemical; design: Eurofins kinase panel, residual kinase activity (%) at 10 uM relative to DMSO
T5 construct: gene MYLK
Method: as §1

[6] = target: T6, EGFR (Homo sapiens, UniProt P00533); test: kinase panel (Eurofins), residual activity at […]; type: biochemical
[7] = target: T7, CLK4 (Homo sapiens, UniProt Q9HAZ1); test: kinase panel (Eurofins), residual activity at […]; type: biochemical
[8] = target: T6, EGFR; test: biochemical; design: Eurofins KinaseProfiler full panel at Km ATP, residual kinase activity (%) relative to DMSO
Method in brief: (§2)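 Two 10 µM single-concentration screens were run: a competition-binding screen, in which DNA-tagged kinase bound to immobilized ligands was quantified by qPCR, and a radiometric activity panel at Km ATP. Each is expressed as residual kinase activity (%).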

[9] = target: T7, CLK4; test: biochemical; design: Eurofins KinaseProfiler full panel at Km ATP, residual kinase activity (%) relative to DMSO
Method in brief: as §2

[10] = target: T8, NEK4 (Homo sapiens, UniProt P51957); test: kinase panel (Eurofins), residual activity at […]; type: biochemical; conditions: read-out: [drawing 3] / Residual Activity (%)
[11] = target: T8, NEK4; test: radiometric kinase assay (Eurofins), IC50; type: biochemical
[12] = read-out: Residual activity (%) Spautin-1
[13] = read-out: [drawing 1] / Residual Activity (%)
[14] = read-out: Residual activity (%) 5as
[15] = read-out: Residual activity (%) 5at
[16] = read-out: Residual activity (%) 5ay
[17] = read-out: [drawing 2] / Residual Activity (%)

T5 sequence (Q15746 whole entry): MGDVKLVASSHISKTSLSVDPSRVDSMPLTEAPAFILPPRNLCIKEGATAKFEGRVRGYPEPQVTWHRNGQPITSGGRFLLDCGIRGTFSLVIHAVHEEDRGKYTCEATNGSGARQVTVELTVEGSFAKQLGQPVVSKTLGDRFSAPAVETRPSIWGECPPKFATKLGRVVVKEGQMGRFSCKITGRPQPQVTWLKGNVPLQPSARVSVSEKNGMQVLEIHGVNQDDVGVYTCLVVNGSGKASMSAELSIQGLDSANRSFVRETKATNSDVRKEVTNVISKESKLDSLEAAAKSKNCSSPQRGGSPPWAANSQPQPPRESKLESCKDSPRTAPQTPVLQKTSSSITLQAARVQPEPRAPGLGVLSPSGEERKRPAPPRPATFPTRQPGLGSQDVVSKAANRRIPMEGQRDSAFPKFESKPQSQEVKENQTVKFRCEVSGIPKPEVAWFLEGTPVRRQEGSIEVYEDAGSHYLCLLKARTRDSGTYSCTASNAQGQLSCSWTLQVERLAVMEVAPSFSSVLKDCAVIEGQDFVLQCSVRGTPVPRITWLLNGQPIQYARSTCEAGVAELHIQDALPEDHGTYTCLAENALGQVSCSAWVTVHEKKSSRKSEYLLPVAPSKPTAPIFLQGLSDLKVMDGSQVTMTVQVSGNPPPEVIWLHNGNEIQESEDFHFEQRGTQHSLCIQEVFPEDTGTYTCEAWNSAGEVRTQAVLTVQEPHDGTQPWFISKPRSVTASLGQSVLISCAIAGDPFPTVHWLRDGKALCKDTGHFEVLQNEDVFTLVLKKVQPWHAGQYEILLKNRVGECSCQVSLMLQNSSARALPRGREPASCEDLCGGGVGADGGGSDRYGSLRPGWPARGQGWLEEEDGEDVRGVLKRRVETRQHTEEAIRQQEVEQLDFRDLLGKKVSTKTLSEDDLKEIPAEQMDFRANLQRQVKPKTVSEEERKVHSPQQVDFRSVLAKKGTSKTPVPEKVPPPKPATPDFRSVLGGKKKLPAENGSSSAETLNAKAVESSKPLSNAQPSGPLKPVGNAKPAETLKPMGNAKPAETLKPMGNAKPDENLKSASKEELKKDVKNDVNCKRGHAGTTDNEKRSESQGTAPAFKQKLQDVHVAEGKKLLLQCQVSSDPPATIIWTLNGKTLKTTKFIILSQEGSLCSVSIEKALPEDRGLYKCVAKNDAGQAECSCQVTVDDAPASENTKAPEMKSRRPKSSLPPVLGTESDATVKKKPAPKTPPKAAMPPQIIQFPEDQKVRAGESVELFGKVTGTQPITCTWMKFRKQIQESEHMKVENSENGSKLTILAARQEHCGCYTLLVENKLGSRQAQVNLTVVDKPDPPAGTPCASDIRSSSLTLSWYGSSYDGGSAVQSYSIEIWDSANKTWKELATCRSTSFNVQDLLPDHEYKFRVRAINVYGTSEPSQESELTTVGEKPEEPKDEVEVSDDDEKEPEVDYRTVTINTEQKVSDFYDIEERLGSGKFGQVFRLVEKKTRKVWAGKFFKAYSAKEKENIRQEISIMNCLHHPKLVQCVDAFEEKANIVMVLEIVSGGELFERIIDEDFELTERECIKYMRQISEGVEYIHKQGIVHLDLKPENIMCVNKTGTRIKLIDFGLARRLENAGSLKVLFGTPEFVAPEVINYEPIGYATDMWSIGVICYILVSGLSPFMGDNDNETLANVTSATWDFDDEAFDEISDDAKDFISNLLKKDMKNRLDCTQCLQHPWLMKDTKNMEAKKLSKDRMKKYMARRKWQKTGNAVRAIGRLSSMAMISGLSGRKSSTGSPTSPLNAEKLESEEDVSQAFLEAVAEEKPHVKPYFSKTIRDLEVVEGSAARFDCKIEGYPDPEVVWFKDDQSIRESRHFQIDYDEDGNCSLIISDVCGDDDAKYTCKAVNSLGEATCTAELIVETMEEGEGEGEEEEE
T7 sequence (Q9HAZ1 whole entry): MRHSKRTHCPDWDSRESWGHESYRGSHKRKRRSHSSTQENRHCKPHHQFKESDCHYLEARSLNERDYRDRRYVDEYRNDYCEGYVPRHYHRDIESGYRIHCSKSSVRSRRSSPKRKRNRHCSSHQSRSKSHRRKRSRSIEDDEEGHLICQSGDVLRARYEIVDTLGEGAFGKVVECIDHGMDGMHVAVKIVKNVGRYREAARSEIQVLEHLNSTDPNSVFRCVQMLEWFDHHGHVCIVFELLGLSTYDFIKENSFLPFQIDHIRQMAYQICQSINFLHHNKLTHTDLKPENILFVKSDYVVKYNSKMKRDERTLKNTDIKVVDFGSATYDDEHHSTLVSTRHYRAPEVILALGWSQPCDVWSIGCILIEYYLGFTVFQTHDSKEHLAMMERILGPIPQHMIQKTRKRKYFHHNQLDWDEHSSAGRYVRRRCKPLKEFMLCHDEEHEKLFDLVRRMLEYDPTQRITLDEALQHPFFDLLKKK
T3 sequence (P27037 whole entry): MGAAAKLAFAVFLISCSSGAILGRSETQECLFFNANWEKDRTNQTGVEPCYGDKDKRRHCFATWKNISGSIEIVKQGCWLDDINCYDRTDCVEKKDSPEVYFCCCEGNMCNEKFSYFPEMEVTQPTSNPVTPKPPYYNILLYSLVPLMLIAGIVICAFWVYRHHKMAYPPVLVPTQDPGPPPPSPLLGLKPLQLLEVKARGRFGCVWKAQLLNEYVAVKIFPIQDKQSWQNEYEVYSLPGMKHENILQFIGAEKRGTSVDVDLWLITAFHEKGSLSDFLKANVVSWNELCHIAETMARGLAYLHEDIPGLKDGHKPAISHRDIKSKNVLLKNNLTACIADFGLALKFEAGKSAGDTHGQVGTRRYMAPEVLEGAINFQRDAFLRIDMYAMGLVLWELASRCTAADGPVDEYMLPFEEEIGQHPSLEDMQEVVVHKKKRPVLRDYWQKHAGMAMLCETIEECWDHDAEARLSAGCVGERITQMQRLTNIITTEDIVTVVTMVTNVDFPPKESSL
T2 sequence (P28482 whole entry): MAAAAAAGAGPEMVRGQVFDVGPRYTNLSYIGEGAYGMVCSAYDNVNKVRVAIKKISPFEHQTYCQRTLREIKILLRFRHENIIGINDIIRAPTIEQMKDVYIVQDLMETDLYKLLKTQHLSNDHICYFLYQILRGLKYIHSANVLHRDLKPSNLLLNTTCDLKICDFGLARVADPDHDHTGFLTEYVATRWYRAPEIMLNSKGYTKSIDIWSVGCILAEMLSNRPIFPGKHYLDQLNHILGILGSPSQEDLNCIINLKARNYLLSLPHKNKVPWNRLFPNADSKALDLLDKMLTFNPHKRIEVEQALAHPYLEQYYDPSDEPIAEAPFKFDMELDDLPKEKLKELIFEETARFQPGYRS
T4 sequence (P27361 whole entry): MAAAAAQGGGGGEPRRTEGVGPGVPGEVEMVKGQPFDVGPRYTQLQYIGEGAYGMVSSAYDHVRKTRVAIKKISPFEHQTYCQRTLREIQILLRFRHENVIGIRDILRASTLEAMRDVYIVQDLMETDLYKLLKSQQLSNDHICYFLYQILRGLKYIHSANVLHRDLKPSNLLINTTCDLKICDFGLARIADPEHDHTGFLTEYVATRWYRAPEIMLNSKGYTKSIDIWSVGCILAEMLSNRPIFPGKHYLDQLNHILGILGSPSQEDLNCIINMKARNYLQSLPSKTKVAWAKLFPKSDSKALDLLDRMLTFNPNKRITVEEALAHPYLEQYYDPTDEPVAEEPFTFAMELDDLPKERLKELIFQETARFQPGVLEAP
T6 sequence (P00533 25-1210): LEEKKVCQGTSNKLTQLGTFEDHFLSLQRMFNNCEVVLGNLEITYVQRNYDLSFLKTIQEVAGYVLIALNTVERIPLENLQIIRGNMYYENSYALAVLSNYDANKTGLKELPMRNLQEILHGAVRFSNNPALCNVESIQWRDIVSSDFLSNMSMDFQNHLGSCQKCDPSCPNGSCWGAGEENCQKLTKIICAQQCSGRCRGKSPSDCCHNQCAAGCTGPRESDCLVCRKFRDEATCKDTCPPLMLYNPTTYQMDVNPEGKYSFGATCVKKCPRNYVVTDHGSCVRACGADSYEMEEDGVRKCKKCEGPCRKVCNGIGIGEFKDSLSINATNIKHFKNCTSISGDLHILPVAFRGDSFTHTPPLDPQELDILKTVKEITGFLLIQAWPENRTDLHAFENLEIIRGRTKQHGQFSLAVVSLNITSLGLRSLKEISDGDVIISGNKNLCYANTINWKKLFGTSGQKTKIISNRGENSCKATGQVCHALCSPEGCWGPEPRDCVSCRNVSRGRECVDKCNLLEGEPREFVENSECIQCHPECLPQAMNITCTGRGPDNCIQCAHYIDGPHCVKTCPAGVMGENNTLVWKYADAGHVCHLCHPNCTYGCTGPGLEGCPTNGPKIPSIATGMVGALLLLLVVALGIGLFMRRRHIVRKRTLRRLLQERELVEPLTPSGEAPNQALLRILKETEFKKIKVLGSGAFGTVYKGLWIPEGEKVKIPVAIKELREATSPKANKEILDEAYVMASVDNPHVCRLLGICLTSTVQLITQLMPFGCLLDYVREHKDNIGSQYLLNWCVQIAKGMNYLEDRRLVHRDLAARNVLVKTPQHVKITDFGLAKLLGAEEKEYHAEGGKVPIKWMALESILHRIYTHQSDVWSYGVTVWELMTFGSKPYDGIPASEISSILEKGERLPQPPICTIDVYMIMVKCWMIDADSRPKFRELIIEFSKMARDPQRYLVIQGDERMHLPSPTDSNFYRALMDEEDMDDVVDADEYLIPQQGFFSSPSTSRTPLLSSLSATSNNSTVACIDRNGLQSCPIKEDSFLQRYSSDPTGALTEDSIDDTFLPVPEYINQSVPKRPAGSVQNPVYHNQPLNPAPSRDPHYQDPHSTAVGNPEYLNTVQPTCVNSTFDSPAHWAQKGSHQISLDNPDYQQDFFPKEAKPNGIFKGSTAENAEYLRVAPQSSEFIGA

`Fc1ccc(CNc2ncnc3ccc(F)cc23)cc1` [5aa, 6-Fluoro-N-(4-fluorobenzyl)-4-Quinazolinamine] was tested, and the remaining activity at 10 µM [1, 12] was 104%, the remaining activity at 10 µM [2, 12] was 96% and the remaining activity at 10 µM [3, 12] was 92%. The remaining activity at 10 µM [4, 12] was 96%, the remaining activity at 10 µM [5, 12] was 83% and the remaining activity at 10 µM [6, 13] was 27%. For the same compound, the remaining activity at 10 µM [7, 13] was 19%.

With `Fc1ccc(CCNc2ncnc3ccc(F)cc23)cc1` [5as, 6-Fluoro-N-[2-(4-Fluorophenyl)Ethyl]-4-Quinazolinamine] the remaining activity at 10 µM [1, 14] was 105%, the remaining activity at 10 µM [2, 14] was 87% and the remaining activity at 10 µM [3, 14] was 83%. It also gave a remaining activity at 10 µM [4, 14] of 93%, a remaining activity at 10 µM [5, 14] of 88% and a remaining activity at 10 µM [8, 14] of 46%. The remaining activity at 10 µM [9, 14] was 12% and the remaining activity at 10 µM [10] was 27%.

With `Fc1ccc2ncnc(NCCc3ccc(Cl)cc3)c2c1` [5at, N-[2-(4-Chlorophenyl)Ethyl]-6-Fluoro-4-Quinazolinamine] the remaining activity at 10 µM [1, 15] was 91%, the remaining activity at 10 µM [2, 15] was 83% and the remaining activity at 10 µM [3, 15] was 97%. It also gave a remaining activity at 10 µM [4, 15] of 114%, a remaining activity at 10 µM [5, 15] of 86% and a remaining activity at 10 µM [8, 15] of 72%. It also gave a remaining activity at 10 µM [9, 15] of 16% and an IC50 [11] of about 1 µM.

`COc1ccc2ncnc(Nc3cccc(F)c3)c2c1` [5ay, N-(3-Fluorophenyl)-6-Methoxy-4-Quinazolinamine] gave a remaining activity at 10 µM [1, 16] of 118%, a remaining activity at 10 µM [2, 16] of 100% and a remaining activity at 10 µM [3, 16] of 85%. For the same compound, the remaining activity at 10 µM [4, 16] was 84%, the remaining activity at 10 µM [5, 16] was 69% and the remaining activity at 10 µM [6, 17] was 1%. The remaining activity at 10 µM [7, 17] was 6%.
